# Where a name gives a salt, the structure may show the parent alone. Read-outs that look alike come from different tables or passages of the source.
# How the values were obtained:
# [1] = system: dopaminergic (D2) receptors; settings: state of the art; cited from earlier work
# [2] = state of the art; cited from earlier work
# rats = settings: state of the art; cited from earlier work
# sigma receptors [3] = biological target: T1, sigma receptors (Rattus norvegicus, UniProt Q9R0C9); experiment: Sigma binding, SKF 10,047/rat brain membranes (Table 1.B); settings: rat brain membranes
# T1 construct: (SKF 10,047/rat brain membranes); from tissue; host or cells: rat brain membranes
# Description: (§1) Tests of binding to phencyclidine and dopamine D2 receptors were carried out to study the possible undesirable interactions of the compounds of the invention with these receptors. The ligands used are [^3 H]-TCP for phencyclidine and [^3 H]spiroperidol for dopamine.
# (§2) The binding experiments are carried out with the sigma ligands (+)-[^3 H]-SKF10,047 and [^3 H]-TCP according to the technique described by Largent B. L. et al. in J. Pharmacol. Exp. Ther. 238, 1986, p 739-748, the principle of which is to place in competition the respective affinities of the product under study and that of a radioactive characteristic ligand for sigma receptors.
# (§3) The technique consists in incubating solutions of suitable concentrations of the test products with standard samples of membranes loaded with the labeled ligand, and then in determining the radioactivity of the solution after filtration.
# (§4) The results are processed so as to calculate the IC50 of the product under study, which represents the nanomolar concentration of solution capable of inhibiting 50% of the binding of the tritiated ligand to the sigma receptors of the membranes used.
# (§5) The SKF 10,047 binding tests are performed with guinea pig or rat brain membranes, those with DTG and TCP are performed with rat brain membranes; the D2 binding tests are performed with guinea pig brain membranes.
# [4] = biological target: phencyclidine (PCP) receptors; experiment: PCP receptor binding test with [3H]-TCP (Table 1.A); settings: guinea pig
# Description: as §1, §2, §3, §4, §5
# sigma receptors [5] = biological target: T2, sigma receptors (Cavia porcellus, UniProt Q60492); experiment: Sigma binding test with (+)-[3H]-SKF10,047, guinea pig brain membranes (Table 1.A); settings: read-out: SKF10047 guinea pig IC50
# T2 construct: from tissue; host or cells: guinea pig brain membranes
# Description: as §1, §2, §3, §4, §5
# [6] = system: convulsions induced by electric shocks in rats; experiment: Protection against convulsions induced by electric shocks in rats; assay type: in vivo, rat (male Sprague Dawley); settings: sc, 0.5 h; rat; subcutaneous; shock 30 minutes after injection; protection in 50% of the animals
# Description: (§6) Moreover, "in vivo" tests enabled the capacity of the compounds of the invention (I) to inhibit convulsions induced by electric shocks in rats, and also their capacity to inhibit gastroduodenal ulcers caused by administration of cysteamine, to be detected.
# a) Convulsions in rats: electric shock
# The psychotropic properties of the compounds (I) were determined by the protection against convulsions induced by electric shocks in rats.
# The emission of an electric shock causes a convulsive state in the animal, characterized by the convulsive extension of front and rear legs.
# In practice, the study is carried out on groups of 10 male Sprague Dawley rats weighing approximately 100 grams, to which the product under study is administered subcutaneously in aqueous solution on the basis of 0.5 ml per 100 grams of the animal's body weight.
# An electric shock is then produced 30 minutes after the injection by means of a UGO BASILE ECT UNIT 7801 electric shock apparatus (APELEX): frequency 50 cps/sec, pulse width 0.6 ms, shock duration 1 sec, intensity 90 mA. […] Each animal then receives a score, which is equal to 1 for the presence of tonic convulsions and zero for the absence of tonic convulsions. […] The results are compared statistically between the control group and the treated group by the test of Fisher R. A. and Yates F. (Biometrika, 1948, 35-149) and the ED50 (dose of the test compound giving rise to protection in 50% of the animals) is calculated by the method of Litchfield J. T. and Wilcoxon F. (J. Pharmacol. Exp. Therap., 1949, 96-99).
# dopamine D2 receptors = biological target: T3, dopamine D2 receptors (Rattus norvegicus, UniProt P61169); experiment: Dopamine D2 binding test with [3H]spiroperidol (Table 1.A)
# T3 construct: from tissue; guinea pig by b443
# Description: as §1
# (§7) Binding with the ligand [^3 H]-DTG is carried out according to the technique of Weber, E. M. et al., 1986, Proc. Natl. Acad. Sci., 83:8784-8788, and binding with the ligand [^3 H]spiroperidol is carried out according to the technique of Fields, J. Z., Reisine, R. D. and Yamamura, H. 1., Brain Res., 136,578 (1977).
# as §3, §4, §5
# sigma receptors [7] = experiment: Sigma binding test with [3H]-DTG (Table 1.A); settings: guinea pig
# Description: as §1, §7, §3, §4, §5
# [8] = system: cysteamine-induced ulcers; experiment: Inhibition of cysteamine-induced gastroduodenal ulcers in rats; assay type: in vivo, rat (male Sprague Dawley); settings: rat, 50% inhibition of ulceration, read-out: Cysteamine ulcer ED50
# Excerpt: as §6
# b) Cysteamine-induced ulcer
# The activity of the compounds of the invention with respect to the gastrointestinal tract was shown in rats by their capacity to inhibit gastroduodenal ulcers caused by administration of cysteamine. (Robert and al., Digestion, 1974, 11, 199-211).
# In practice, the study is carried out according to the method described by Selye, H. and Szabo, S., Nature, 1973, 244:458-459 on groups of male Sprague Dawley rats weighing 200 g on average, to which a solution of cysteamine hydrochloride is administered by subcutaneous injection on the basis of 400 mg/kg, […] the ulcerogenic agent. Eighteen hours later, the rats are sacrificed by elongation, and the stomach and duodenum are removed, rinsed with physiological solution and pinned onto a card. The presence of ulcers of the antropyloroduodenal region is looked for, and their area, expressed in mm^2, is evaluated by multiplying the two principal perpendicular axes of the lesion. Statistical analysis of the results is carried out using Student's test for the ulcerated areas in comparison with a control group. The results are presented in Table 2, and expressed as an ED50 of ulceration scores, which are the effective doses of product in (mg/kg) for a 50% inhibition of the cysteamine-induced ulcers.
# [9] = Stability remark on isolated product; assay type: physicochemical; settings: free base, after Stage 3
# [10] = system: dopaminergic D2 receptors; settings: state of the art; cited from earlier work
# [11] = system: phencyclidine (PCP) receptors; settings: state of the art; cited from earlier work
# T3 sequence (P61169 whole entry): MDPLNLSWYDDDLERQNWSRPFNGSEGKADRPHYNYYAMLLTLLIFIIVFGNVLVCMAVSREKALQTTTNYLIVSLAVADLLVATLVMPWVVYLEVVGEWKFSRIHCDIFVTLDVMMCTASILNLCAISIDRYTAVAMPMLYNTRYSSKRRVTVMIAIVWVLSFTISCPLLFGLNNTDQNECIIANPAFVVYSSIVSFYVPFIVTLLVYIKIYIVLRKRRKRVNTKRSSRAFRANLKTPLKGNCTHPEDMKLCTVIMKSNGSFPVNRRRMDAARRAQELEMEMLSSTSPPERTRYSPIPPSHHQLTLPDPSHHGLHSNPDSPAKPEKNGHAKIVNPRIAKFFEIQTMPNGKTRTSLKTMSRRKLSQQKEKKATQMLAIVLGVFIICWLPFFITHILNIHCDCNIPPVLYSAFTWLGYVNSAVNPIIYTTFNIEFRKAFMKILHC
# T2 sequence (Q60492 whole entry): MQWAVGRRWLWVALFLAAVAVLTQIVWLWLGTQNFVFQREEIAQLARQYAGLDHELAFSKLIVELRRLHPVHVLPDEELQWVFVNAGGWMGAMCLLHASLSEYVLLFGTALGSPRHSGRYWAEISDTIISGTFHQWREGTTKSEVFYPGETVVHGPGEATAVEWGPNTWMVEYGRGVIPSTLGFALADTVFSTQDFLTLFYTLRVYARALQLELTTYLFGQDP
# T1 sequence (Q9R0C9 whole entry): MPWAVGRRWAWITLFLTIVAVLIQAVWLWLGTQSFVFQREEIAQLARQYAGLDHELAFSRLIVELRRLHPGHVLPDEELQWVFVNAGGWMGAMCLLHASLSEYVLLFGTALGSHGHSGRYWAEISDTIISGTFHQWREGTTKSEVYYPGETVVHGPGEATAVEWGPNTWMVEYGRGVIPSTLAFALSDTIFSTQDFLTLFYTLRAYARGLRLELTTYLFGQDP
structure (smiles),measurement,setting,value
"CCCN1CCC[C@H](c2cccc(O)c2)C1 [(+)-3-PPP, (+)-3-(3-hydroxyphenyl)-N-(1-propyl)piperidine]",affinity for dopaminergic (D2) receptors,[1],strong affinity for dopaminergic (D2) receptors
"Cc1ccccc1NC(=N)Nc1ccccc1C [DTG, 1,3-di-o-tolylguanidine]",crossing the blood-brain barrier,[2],difficulty in crossing the blood-brain barrier
same,symptoms in rats,rats,causes symptoms in rats similar to those of PCP
"CN(CCC1Cc2ccccc2C1=O)CC1CC1 (centres unmarked) [EXAMPLE 1, 2-[2-[(N-Cyclopropylmethyl-N-Methyl)Amino]Ethyl]-1-Oxo-1,2-Dihydroindene Hydrochloride]",IC50,sigma receptors [3],10.7 nM
"CN(CCC1CCc2ccccc2C1=O)CC1CC1 (centres unmarked) [EXAMPLE 2, 2-[2-[(N-Cyclopropylmethyl-N-Methyl)Amino]Ethyl]-1-Oxo-1,2,3,4-Tetrahydronaphthalene Hydrochloride]",IC50,[4],> 10000 nM
same,IC50,sigma receptors [5],12 nM
same,ED50,[6],0.1 mg/kg
same,IC50,dopamine D2 receptors,> 10000 nM
same,IC50,sigma receptors [3],19.4 nM
same,IC50,sigma receptors [7],52 nM
"CN(CCC1CCc2ccccc2C1=O)CC1CCC1 (centres unmarked) [EXAMPLE 3, 2-[2-[(N-cyclobutylmethyl-N-methyl)amino]ethyl]-1-oxo-1,2,3,4-tetrahydronaphthalene]",IC50,[4],> 10000 nM
same,IC50,sigma receptors [5],5.24 nM
same,ED50,[6],0.9 mg/kg
same,ED50,[8]; intraperitoneal route (ip),5.7 mg/kg
same,ED50,[8]; oral route (po),8.6 mg/kg
same,IC50,dopamine D2 receptors,1170 nM
same,IC50,sigma receptors [3],11.1 nM
"CN(CCC1CC1)CCC1CCc2ccccc2C1=O (centres unmarked) [EXAMPLE 4, 2-[2-[(N-Cyclopropylethyl-N-Methyl)Amino]Ethyl]-1-oxo-1,2,3,4-Tetrahydronaphthalene Hydrochloride]",IC50,[4],> 10000 nM
same,IC50,sigma receptors [5],2.83 nM
same,ED50,[6],1 mg/kg
same,ED50,[8]; oral route (po),15.6 mg/kg
same,IC50,dopamine D2 receptors,1910 nM
same,IC50,sigma receptors [3],10.6 nM
same,IC50,sigma receptors [7],56 nM
"CN(CCC1CCc2ccccc2C1=O)CC1CCCCC1 (centres unmarked) [EXAMPLE 5, 2-[2-[(N-Cyclohexylmethyl-N-Methyl)Amino]-Ethyl]-1-Oxo-1,2,3,4-Tetrahydronaphthalene Hydrochloride]",IC50,sigma receptors [3],8.2 nM
"COc1ccc2c(c1)CCC(CCN(C)CC1CCCCC1)C2=O (centres unmarked) [EXAMPLE 6, 2-[2-[(N-Cyclohexylmethyl-N-Methyl)Amino]-Ethyl]6-Methoxy-1-oxo-1,2,3,4-Tetrahydronaphthalene Hydrochloride]",IC50,sigma receptors [3],8 nM
"O=C1c2ccccc2CCC1CCNC1CC1 (centres unmarked) [EXAMPLE 7, 2-[2-(N-Cyclopropylamino)Ethyl]-1-Oxo-1,2,3,4-Tetrahydronaphthalene]",stability,[9],unstable
"CCCN(CCC1CCc2ccccc2C1=O)CC1CC1 (centres unmarked) [EXAMPLE 9, 2-[2-[(N-cyclopropylmethyl-N-propyl)amino]ethyl]-1-oxo-1,2,3,4-tetrahydronaphthalene]",IC50,sigma receptors [3],10.4 nM
"CN(CCC1CCCc2ccccc2C1=O)CC1CC1 (centres unmarked) [EXAMPLE 10, 2-[2-[(N-Cyclopropylmethyl-N-Methyl)Amino]Ethyl]-1-Benzosuberone Hydrochloride]",ED50,[6],1.6 mg/kg
same,IC50,sigma receptors [3],5.7 nM
"CN(CCC1CCCc2ccccc2C1=O)CC1CCCCC1 (centres unmarked) [EXAMPLE 11, 2-[2-[(N-Cyclohexylmethyl-N-Methyl)Amino]-Ethyl]-1-Benzosuberone Hydrochloride]",IC50,sigma receptors [3],6.6 nM
"CN(CCC1CCc2ccccc2C12OCCO2)CC1CC1 (centres unmarked) [EXAMPLE 12, 2-[2-[(N-cyclopropylmethyl-N-methyl)amino]ethyl]-1-[spiro(cyclodioxyethyl)]-1,2,3,4-tetrahydro naphhtalene]",ED50,[6],1.7 mg/kg
same,ED50,[8]; intraperitoneal route (ip),11.6 mg/kg
same,IC50,sigma receptors [3],30.5 nM
"CN(CCC1CCc2ccccc2C1=NO)CC1CCC1 (centres unmarked) [EXAMPLE 13, 2-[2-[(N-Cyclobutylmethyl-N-Methyl)Amino]Ethyl]-1-Hydroxyimino-1,2,3,4Tetrahydronaphthalene]",IC50,sigma receptors [3],7.7 nM
"CN(CCC1COc2ccccc2C1=O)CC1CC1 (centres unmarked) [EXAMPLE 14, 3-[2-[(N-Cyclopropylmethyl-N-Methyl)Amino]-Ethyl]4-Chromanone Hydrchloride]",ED50,[6],3.5 mg/kg
same,IC50,sigma receptors [3],13.7 nM
"CN(CCC1COc2ccccc2C1=O)CC1CCCCC1 (centres unmarked) [EXAMPLE 15, 3-[2-[(N-cyclohexylmethyl-N-methyl)amino]ethyl]-4-chromanone]",IC50,sigma receptors [3],5.7 nM
"CN(CCC1COc2ccc(F)cc2C1=O)CC1CCCCC1 (centres unmarked) [EXAMPLE 16, 3-[2-[(N-Cyclohexylmethyl-N-Methyl)Amino]-Ethyl]-6-Fluoro-4-Chromanone Hydrochloride]",IC50,sigma receptors [3],6.2 nM
"C=CCN(C)CCC1CCc2ccccc2C1=O (centres unmarked) [EXAMPLE 17, 2-[2-[(N-Allyl-N-Methyl)Amino]Ethyl]-1-Oxo-1,2,3,4-Tetrahydronaphthalene Hydrochloride]",IC50,sigma receptors [3],13.3 nM
"O=C(CCCN1CCC(O)(c2ccc(Cl)cc2)CC1)c1ccc(F)cc1 [Haloperidol, 4-[4-(p-chlorophenyl)-4-hydroxypiperidino]-4'-fluorobutyrophenone]",affinity for dopaminergic (D2) receptors,[1],strong affinity for dopaminergic D2 receptors
same,extrapyramidal disorders,[10],can induce extrapyramidal disorders of the cataleptic type
"C=CCN1CCC2(C)c3cc(O)ccc3CC1C2C (centres unmarked) [SKF 10047, N-allylnormetazocine]",affinity for phencyclidine (PCP) receptors,[11],strong affinity for phencyclidine (PCP) receptors
C[C@H]1[C@H]2Cc3ccc(O)cc3[C@]1(C)CCN2CC1CC1 [cyclazocine],affinity for phencyclidine (PCP) receptors,[11],strong affinity for phencyclidine (PCP) receptors

# From US5326784A, “Cycloalkylalkylamines which are sigma-receptor ligands and their application in therapy” (Institut de Recherche Jouveinal, priority 1992, dated 1994)
